Assays:
NCI/ADR-RES = assay: panel of 60 human tumor cell lines, growth inhibition (Ovarian Cancer); details: Homo sapiens; for CC50: read-out: LC50; for IC (TGI): read-out: TGI
K-562 = assay: panel of 60 human tumor cell lines, growth inhibition (Leukemia); details: for GI50 / CC50: Homo sapiens; for GI50: K562; for CC50: K562, read-out: LC50; for Percent Growth / TGI: K-562; for TGI: NCI five dose
HOP-62 = assay: panel of 60 human tumor cell lines, growth inhibition (Non-Small Cell Lung Cancer); details: Homo sapiens; for GI50: HOP-62; for CC50: HOP-62, read-out: LC50; for IC (TGI): HOP-62, read-out: TGI
HS 578T = assay: panel of 60 human tumor cell lines, growth inhibition (Breast Cancer); details: Homo sapiens, Hs-578T; for CC50: read-out: LC50; for IC (TGI): read-out: TGI
A498 = assay: panel of 60 human tumor cell lines, growth inhibition (Renal Cancer); details: Homo sapiens; for GI50: A498; for CC50: A498, read-out: LC50; for IC (TGI): A498, read-out: TGI
U251 = assay: panel of 60 human tumor cell lines, growth inhibition (CNS Cancer); details: Homo sapiens; for GI50: U-251; for CC50: U-251, read-out: LC50; for IC (TGI): U-251, read-out: TGI
SW-620 = assay: panel of 60 human tumor cell lines, growth inhibition (Colon Cancer); details: Homo sapiens; for GI50: SW-620, SW-620, NCI five dose; for CC50: SW-620, read-out: LC50; for IC (TGI): SW-620, read-out: TGI
786-0 = assay: panel of 60 human tumor cell lines, growth inhibition (Renal Cancer); details: Homo sapiens; for GI50: 786-0; for CC50: 786-0, read-out: LC50; for IC (TGI): 786-0, read-out: TGI
LOX IMVI = assay: panel of 60 human tumor cell lines, growth inhibition (Melanoma); details: Homo sapiens; for GI50: NCI five dose; for CC50: read-out: LC50; for IC (TGI): read-out: TGI
COLO 205 = assay: panel of 60 human tumor cell lines, growth inhibition (Colon Cancer); details: Homo sapiens; for GI50: COLO 205; for CC50: COLO 205, read-out: LC50
DU-145 = assay: panel of 60 human tumor cell lines, growth inhibition (Prostate Cancer); details: Homo sapiens; for GI50: DU-145; for CC50: DU-145, read-out: LC50; for IC (TGI): DU-145, read-out: TGI
NCI-H226 = assay: panel of 60 human tumor cell lines, growth inhibition (Non-Small Cell Lung Cancer); details: Homo sapiens; for GI50: NCI-H226; for CC50: NCI-H226, read-out: LC50; for IC (TGI): NCI-H226, read-out: TGI
SF-295 = assay: panel of 60 human tumor cell lines, growth inhibition (CNS Cancer); details: Homo sapiens; for GI50: SF-295; for CC50: SF-295, read-out: LC50; for IC (TGI): SF-295, read-out: TGI
NCI-H522 = assay: panel of 60 human tumor cell lines, growth inhibition (Non-Small Cell Lung Cancer); details: Homo sapiens; for GI50: NCI-H522; for CC50: NCI-H522, read-out: LC50; for IC (TGI): NCI-H522, read-out: TGI
OVCAR-5 = assay: panel of 60 human tumor cell lines, growth inhibition (Ovarian Cancer); details: Homo sapiens; for GI50: OVCAR-5; for CC50: OVCAR-5, read-out: LC50; for IC (TGI): OVCAR-5, read-out: TGI
PC-3 = assay: panel of 60 human tumor cell lines, growth inhibition (Prostate Cancer); details: Homo sapiens; for GI50: PC-3; for CC50: PC-3, read-out: LC50; for IC (TGI): PC-3, read-out: TGI
CAKI-1 = assay: panel of 60 human tumor cell lines, growth inhibition (Renal Cancer); details: Homo sapiens; for GI50: CAKI-1; for CC50: CAKI-1, read-out: LC50; for IC (TGI): CAKI-1, read-out: TGI
M14 = assay: panel of 60 human tumor cell lines, growth inhibition (Melanoma); details: Homo sapiens; for GI50: M14; for CC50: M14, read-out: LC50; for IC (TGI): M14, read-out: TGI
SF-268 = assay: panel of 60 human tumor cell lines, growth inhibition (CNS Cancer); details: Homo sapiens; for GI50: SF-268; for CC50: SF-268, read-out: LC50; for IC (TGI): SF-268, read-out: TGI

C=C1C(=O)O[C@H]2[C@H]1CC/C(COC(=O)OCCN(C)C)=C\CC[C@@]1(C)O[C@@H]21 [JVM 2-35]
GI50 (NCI/ADR-RES): 23.7 µM | CC50 (NCI/ADR-RES): > 100 µM | IC (TGI) (NCI/ADR-RES): 84.6 µM | GI50 (K-562): 5.55 µM | CC50 (K-562): > 100 µM | Percent Growth (K-562; Log10 Concentration −4.0): −33% | Percent Growth (K-562; Log10 Concentration −5.0): 30% | Percent Growth (K-562; Log10 Concentration −6.0): 107% | Percent Growth (K-562; Log10 Concentration −7.0): 96% | Percent Growth (K-562; Log10 Concentration −8.0): 101% | TGI (K-562): 3.00E−5 | GI50 (HOP-62): 22.9 µM | CC50 (HOP-62): > 100 µM | IC (TGI) (HOP-62): 82.1 µM | GI50 (HS 578T): 13.6 µM | CC50 (HS 578T): > 100 µM | IC (TGI) (HS 578T): 59.3 µM | GI50 (A498): 13.3 µM | CC50 (A498): 56.6 µM | IC (TGI) (A498): 27.4 µM | GI50 (U251): 20.3 µM | CC50 (U251): > 100 µM | IC (TGI) (U251): 45.2 µM | GI50 (SW-620): 3.58 µM | CC50 (SW-620): 50.6 µM | IC (TGI) (SW-620): 15 µM | GI50 (786-0): 2.75 µM | CC50 (786-0): 37.3 µM | IC (TGI) (786-0): 12.1 µM | GI50 (LOX IMVI): 5.16 µM | CC50 (LOX IMVI): 47.5 µM | IC (TGI) (LOX IMVI): 18.2 µM | GI50 (COLO 205): 2.19 µM | CC50 (COLO 205): 18.6 µM | IC (TGI) (COLO 205; COLO 205, read-out: TGI): 5.46 µM | GI50 (DU-145): 3.59 µM | CC50 (DU-145): 37.7 µM | IC (TGI) (DU-145): 13.2 µM | GI50 (NCI-H226): 11.9 µM | CC50 (NCI-H226): 89.9 µM | IC (TGI) (NCI-H226): 32.7 µM | GI50 (SF-295): 24.7 µM | CC50 (SF-295): > 100 µM | IC (TGI) (SF-295): > 100 µM | GI50 (NCI-H522): 1.5 µM | CC50 (NCI-H522): 9.57 µM | IC (TGI) (NCI-H522): 3.79 µM | GI50 (OVCAR-5): 13.1 µM | CC50 (OVCAR-5): 57 µM | IC (TGI) (OVCAR-5): 27.3 µM | GI50 (PC-3): 14 µM | CC50 (PC-3): 64.5 µM | IC (TGI) (PC-3): 30 µM | GI50 (CAKI-1): 3.22 µM | CC50 (CAKI-1): 39.9 µM | IC (TGI) (CAKI-1): 15.6 µM | GI50 (M14): 3.71 µM | CC50 (M14): 45.6 µM | IC (TGI) (M14): 16.4 µM | GI50 (SF-268): 11.7 µM | CC50 (SF-268): 69.3 µM | IC (TGI) (SF-268): 28.5 µM

C=C1C(=O)O[C@H]2[C@H]1CC/C(COC(=O)OC)=C\CC[C@@]1(C)O[C@@H]21 [JVM 2-40]
GI50 (NCI/ADR-RES): 17.2 µM | CC50 (NCI/ADR-RES): > 100 µM | IC (TGI) (NCI/ADR-RES): 49.2 µM | GI50 (K-562): 4.12 µM | CC50 (K-562): > 100 µM | Percent Growth (K-562; Log10 Concentration −4.0): −31% | Percent Growth (K-562; Log10 Concentration −5.0): 21% | Percent Growth (K-562; Log10 Concentration −6.0): 97% | Percent Growth (K-562; Log10 Concentration −7.0): 99% | Percent Growth (K-562; Log10 Concentration −8.0): 101% | TGI (K-562): 2.53E−5 | GI50 (HOP-62): 14.9 µM | CC50 (HOP-62): 62.2 µM | IC (TGI) (HOP-62): 30.4 µM | GI50 (HS 578T): 4.72 µM | CC50 (HS 578T): > 100 µM | IC (TGI) (HS 578T): 38.9 µM | GI50 (A498): 10.9 µM | CC50 (A498): 49 µM | IC (TGI) (A498): 23.1 µM | GI50 (U251): 16.4 µM | CC50 (U251): 55.5 µM | IC (TGI) (U251): 30.2 µM | GI50 (SW-620): 2.39 µM | CC50 (SW-620): 47.4 µM | IC (TGI) (SW-620): 11.9 µM | GI50 (786-0): 3.29 µM | CC50 (786-0): 48.5 µM | IC (TGI) (786-0): 14.4 µM | GI50 (LOX IMVI): 3.4 µM | CC50 (LOX IMVI): 43.3 µM | IC (TGI) (LOX IMVI): 13.1 µM | GI50 (COLO 205): 2.25 µM | CC50 (COLO 205): 25 µM | GI50 (DU-145): 3.35 µM | CC50 (DU-145): 37.7 µM | IC (TGI) (DU-145): 14 µM | GI50 (NCI-H226): 7.07 µM | CC50 (NCI-H226): 87.7 µM | IC (TGI) (NCI-H226): 27.4 µM | GI50 (SF-295): 13.2 µM | CC50 (SF-295): 59.3 µM | IC (TGI) (SF-295): 28 µM | GI50 (NCI-H522): 1.07 µM | CC50 (NCI-H522): 5.82 µM | IC (TGI) (NCI-H522): 2.5 µM | GI50 (OVCAR-5): 5.31 µM | CC50 (OVCAR-5): 47 µM | IC (TGI) (OVCAR-5): 19.5 µM | GI50 (PC-3): 12 µM | CC50 (PC-3): 59.4 µM | IC (TGI) (PC-3): 26.7 µM | GI50 (CAKI-1): 2.79 µM | CC50 (CAKI-1): 38.8 µM | IC (TGI) (CAKI-1): 15 µM | GI50 (M14): 2.91 µM | CC50 (M14): 42.2 µM | IC (TGI) (M14): 14.1 µM | GI50 (SF-268): 7.36 µM | CC50 (SF-268): 62.8 µM | IC (TGI) (SF-268): 23.6 µM
